Measured values published in patent publication US11559575B2, “Multi-epitopic peptide compounds and vaccines against leishmaniasis” (INSTITUT DE RECHERCHE POUR LE DEVELOPPEMENT, priority 2018, dated 2023).
“Also recorded” adds a separate entry of the source.

System: HLA alleles of class II
Assay: Affinity of epitopes for HLA alleles of class II
Type: binding, human
Settings: for Concatenation affinity for the HLA alleles of class II: H2B-II peptides, Table 1
From the text: The multiepitopic peptide compounds (24 to 40-mer), having a high affinity with a maximized number of HLA molecules of class I and of class II, such as the affinities for the alleles HLA of class I and HLA of class II of the epitopes in the peptides of the sequences SEQ ID NO: 22, 23, 65, 66, 69, 73, 77, 96, 97, 137, 138, and 157, 185, have a high immunoprevalent potential corresponding to an optimal vaccine coverage, in particular for the populations concerned. The degree of coverage of the peptide compounds of the invention show a very high added value compared with the peptides of the prior art.

YSEVSAKTK (Leishmania major) [SEQ ID NO: 127]
Concatenation affinity for HLA alleles of class II (LmlRAB-IIB core, Table 2): HLA-DRB1*07:01,; also recorded: HLA-DRB5*01:01

NAIVTSRKV (Leishmania major) [SEQ ID NO: 125]
Concatenation affinity for HLA alleles of class II (LmlRAB-IIB core, Table 2): HLA-DRB1*07:01

SGSDYSHSMIRDLDF (listed as Leishmania infantum) [SEQ ID NO: 167]
Concatenation affinity for HLA alleles of class II (PSA KC-2.7 peptides, Table 3): HLA-DRB1*01:01, HLA-DRB1*04:05,; also recorded: HLA-DRB1*07:01, HLA-DRB1*09:01,; also recorded: HLA-DRB5*01:01,; also recorded: HLA-DPA1*02:01/DPB1*14:01

VTSRKQEEVFDLFT (Leishmania major) [SEQ ID NO: 118]
Concatenation affinity for HLA alleles of class II (LmlRAB-IIB peptides, Table 2): HLA-DRB1*03:01, HLA-DPA1*01:03/DPB1*02:01,; also recorded: HLA-DPA1*02:01/DPB1*05:01,; also recorded: HLA-DPA1*03:01/HLA-DPB1*04:02,; also recorded: HLA-DPA1*02:01/HLA-DPB1*14:01

DYSHSMIRDLDFSNM (listed as Leishmania infantum) [SEQ ID NO: 158]
Concatenation affinity for HLA alleles of class II (PSA KC-2.7 peptides, Table 3): HLA-DRB1*04:01, HLA-DRB1*04:05,; also recorded: HLA-DRB1*07:01, HLA-DRB1*09:01,; also recorded: HLA-DRB1*12:01, HLA-DRB4*01:01,; also recorded: HLA-DPA1*02:01/DPB1*14:01

KGRLHSVVGRHLSIV (Leishmania major) [SEQ ID NO: 78]
Concatenation affinity for HLA alleles of class II (LmLRAB-IIA peptides, Table 2): HLA-DRB1*07:01,; also recorded: HLA-DRB5*01:01,; also recorded: HLA-DRB1*11:01,; also recorded: HLA-DRB1*15:01,; also recorded: HLA-DRB1*09:01,; also recorded: HLA-DRB4*01:01

TSRKVQEEVFDLFTD (Leishmania major) [SEQ ID NO: 115]
Concatenation affinity for HLA alleles of class II (LmlRAB-IIB peptides, Table 2): HLA-DRB1*03:01, HLA-DPA1*01:03/DPB1*02:01,; also recorded: HLA-DPA1*02:01/DPB1*05:01,; also recorded: HLA-DPA1*03:01/HLA-DPB1*04:02,; also recorded: HLA-DPA1*02:01/HLA-DPB1*14:01

YFLTDEKTSLVYGDG (listed as Leishmania infantum) [SEQ ID NO: 145]
Concatenation affinity for HLA alleles of class II (PSA KC-2.6 peptides, Table 3): HLA-DRB1*01:01, HLA-DRB1*03:01,; also recorded: HLA-DRB1*04:01, HLA-DRB3*01:01,; also recorded: HLA-DRB3*02:02,; also recorded: HLA-DPA1*03:01/DPB1*04:02,; also recorded: HLA-DPA1*02:01/DPB1*14:01

PSGSDYSHSMIRDLD (listed as Leishmania infantum) [SEQ ID NO: 164]
Concatenation affinity for HLA alleles of class II (PSA KC-2.7 peptides, Table 3): HLA-DRB1*04:05, HLA-DRB1*07:01,; also recorded: HLA-DRB1*09:01, HLA-DRB5*01:01,; also recorded: LA-DPA1*02:01/DPB1*01:01

SLKAINAQMSMSHRT (Leishmania major) [SEQ ID NO: 37]
Concatenation affinity for the HLA alleles of class II: HLA-DRB1*07:01, HLA-DRB1*04:01, HLA-DRB1*04:05,; also recorded: HLA-DRB1*09:01, HLA-DRB1*11:01, HLA-DRB1*15:01,; also recorded: HLA-DRB5*01:01, HLA-DRB1*01:01, HLA-DRB1*08:02,; also recorded: HLA-DRB4*01:01,

GEGYFLTDEKTSLVY (listed as Leishmania infantum) [SEQ ID NO: 141]
Concatenation affinity for HLA alleles of class II (PSA KC-2.6 peptides, Table 3): HLA-DRB1*01:01, HLA-DRB1*03:01,; also recorded: HLA-DRB1*04:01, HLA-DRB1*04:05,; also recorded: HLA-DRB1*07:01, HLA-DRB1*11:01,; also recorded: HLA-DRB1*12:01, HLA-DRB1*13:02,; also recorded: HLA-DRB3*01:01, HLA-DRB3*02:02,; also recorded: HLA-DPA1*03:01/DPB1*04:02,; also recorded: HLA-DPA1*02:01/HDPB1*14:01

VGRHLSIVA (Leishmania major) [SEQ ID NO: 91]
Concatenation affinity for HLA alleles of class II (LmLRAB-IIA core, Table 2): HLA-DRB1*15:01

YSHSMIRDL (listed as Leishmania infantum) [SEQ ID NO: 178]
Concatenation affinity for HLA alleles of class II (PSA KC-2.7 core, Table 3): HLA-DRB1*04:05,; also recorded: HLA-DRB1*07:01,; also recorded: HLA-DRB1*09:01,; also recorded: HLA-DPA1*02:01/; also recorded: DPB1*01:01

SRKVQEEVFDLFTDV (Leishmania major) [SEQ ID NO: 114]
Concatenation affinity for HLA alleles of class II (LmlRAB-IIB peptides, Table 2): HLA-DRB1*03:01, HLA-DPA1*01:03/DPB1*02:01,; also recorded: HLA-DPA1*02:01/DPB1*05:01,; also recorded: HLA-DPA1*03:01/DPB1*04:02

GYFLTDEKTSLVYGD (listed as Leishmania infantum) [SEQ ID NO: 142]
Concatenation affinity for HLA alleles of class II (PSA KC-2.6 peptides, Table 3): HLA-DRB1*01:01, HLA-DRB1*03:01,; also recorded: HLA-DRB1*04:01, HLA-DRB1*07:01,; also recorded: HLA-DRB1*11:01, HLA-DRB3*01:01,; also recorded: HLA-DRB3*02:02,; also recorded: HLA-DPA1*02:01/DPB1*14:01,; also recorded: HLA-DPA1*03:01/DPB1*04:02

GRHLSIVADHMPHLD (Leishmania major) [SEQ ID NO: 86]
Concatenation affinity for HLA alleles of class II (LmLRAB-IIA peptides, Table 2): HLA-DRB3*01:01,; also recorded: HLA-DRB1*03:01,; also recorded: HLA-DRB1*13:02,

AINAQMSMSHRTMKI (Leishmania major) [SEQ ID NO: 40]
Concatenation affinity for the HLA alleles of class II: HLA-DRB1*01:01, HLA-DRB1*04:01, HLA-DRB1*09:01,; also recorded: HLA-DRB1*15:01, HLA-DRB4*01:01, HLA-DRB5*01:01,; also recorded: HLA-DRB3*01:01, HLA-DRB1*11:01, HLA-DRB1*07:01

RLHSVVGRHLSIVAD (Leishmania major) [SEQ ID NO: 80]
Concatenation affinity for HLA alleles of class II (LmLRAB-IIA peptides, Table 2): HLA-DRB1*07:01,; also recorded: HLA-DRB1*15:01,; also recorded: HLA-DRB5*01:01,; also recorded: HLA-DRB1*11:01,; also recorded: HLA-DRB1*09:01,

FLTDEKTSLVYGDGG (listed as Leishmania infantum) [SEQ ID NO: 140]
Concatenation affinity for HLA alleles of class II (PSA KC-2.6 peptides, Table 3): HLA-DRB1*03:01, HLA-DRB3*01:01
